# Reference: patent US9090571B2, “Meglumine salt of 6-fluoro-3-hydroxy-2-pyrazine carboxamide” (TOYAMA CHEMICAL CO., LTD., priority 2010, dated 2015)
# Test: Solubility in water (statement)
# Format: physicochemical
row,SMILES,solubility in water
1,"NC(=O)c1nc(F)c[nH]c1=O [Compound A, 6-fluoro-3-hydroxy-2-pyrazinecarboxamide]",low solubility in water
2,"CNC[C@H](O)[C@@H](O)[C@H](O)[C@H](O)CO.NC(=O)c1nc(F)cnc1O [Salt A, meglumine salt of 6-fluoro-3-hydroxy-2-pyrazinecarboxamide]",high
